Assay results from patent US20110136762A1, “FUNGICIDAL PYRIDAZINES” (E.I. Du Pont de Nemours and Company, priority 2008, published 2011).

How the values were obtained:
Type in all cases: in vivo
[1] = tested on: Erysiphe graminis; experiment: Test A: wheat powdery mildew, preventive spray on wheat seedlings, visual disease rating; conditions: 200 ppm, 100 = 100% disease control, 0 = no disease control relative to controls; for pest or weed control at 200 ppm: Blumeria graminis, 192 h
Excerpt: General protocol for preparing test suspensions for Tests A-F: […] The resulting test suspensions were then used in Tests A-F. The test suspensions were sprayed to the point of run-off on the test plants. All results are for 200 ppm (equivalent to a rate of 500 g/ha) except where followed by “*” which indicates 40 ppm. The test suspension was sprayed to the point of run-off on wheat seedlings. The following day the seedlings were inoculated with a spore dust of Erysiphe graminis, (the causal agent of wheat powdery mildew) and incubated in a growth chamber at 20° C. for 8 days, after which time visual disease ratings were made. […] A dash (-) indicates no test results. All results are for 200 ppm except where followed by “*”, which indicates 40 ppm.

[2] = tested on: Puccinia recondita f. sp. tritici; experiment: Test B: wheat leaf rust, preventive spray on wheat seedlings, visual disease rating; conditions: 200 ppm, 100 = 100% disease control, 0 = no disease control relative to controls; for pest or weed control at 200 ppm: 192 h
Excerpt: General protocol for preparing test suspensions for Tests A-F: […] The resulting test suspensions were then used in Tests A-F. The test suspensions were sprayed to the point of run-off on the test plants. All results are for 200 ppm (equivalent to a rate of 500 g/ha) except where followed by “*” which indicates 40 ppm. The test suspension was sprayed to the point of run-off on wheat seedlings. The following day the seedlings were inoculated with a spore suspension of Puccinia recondita f. sp. tritici (the causal agent of wheat leaf rust) and incubated in a saturated atmosphere at 20° C. for 24 h, and then moved to a growth chamber at 20° C. for 7 days, after which time visual disease ratings were made. […] A dash (-) indicates no test results. All results are for 200 ppm except where followed by “*”, which indicates 40 ppm.

[3] = tested on: Septoria tritici; experiment: Test C: wheat leaf blotch, preventive spray on wheat seedlings, visual disease rating; conditions: 200 ppm, 100 = 100% disease control, 0 = no disease control relative to controls; for pest or weed control at 200 ppm: Zymoseptoria tritici, 504 h
Excerpt: General protocol for preparing test suspensions for Tests A-F: […] The resulting test suspensions were then used in Tests A-F. The test suspensions were sprayed to the point of run-off on the test plants. All results are for 200 ppm (equivalent to a rate of 500 g/ha) except where followed by “*” which indicates 40 ppm. The test suspension was sprayed to the point of run-off on wheat seedlings. The following day the seedlings were inoculated with a spore suspension of Septoria tritici (the causal agent of wheat leaf blotch) and incubated in saturated atmosphere at 20° C. for 48 h, and moved to a growth chamber at 20° C. for 19 additional days, after which time visual disease ratings were made. […] A dash (-) indicates no test results. All results are for 200 ppm except where followed by “*”, which indicates 40 ppm.

[4] = tested on: Septoria nodorum; experiment: Test D: wheat glume blotch, preventive spray on wheat seedlings, visual disease rating; conditions: 200 ppm, 100 = 100% disease control, 0 = no disease control relative to controls; for pest or weed control at 200 ppm: Parastagonospora nodorum
Excerpt: General protocol for preparing test suspensions for Tests A-F: […] The resulting test suspensions were then used in Tests A-F. The test suspensions were sprayed to the point of run-off on the test plants. All results are for 200 ppm (equivalent to a rate of 500 g/ha) except where followed by “*” which indicates 40 ppm. The test suspension was sprayed to the point of run-off on wheat seedlings. The following day the seedlings were inoculated with a spore suspension of Septoria nodorum (the causal agent of wheat glume blotch) and incubated in a saturated atmosphere at 20° C. for 48 h, and then moved to a growth chamber at 20° C. for 7 days, after which time visual disease ratings were made. […] A dash (-) indicates no test results. All results are for 200 ppm except where followed by “*”, which indicates 40 ppm.

[5] = tested on: Alternaria solani; experiment: Test E: tomato early blight, preventive spray on tomato seedlings, visual disease rating; conditions: 200 ppm, 100 = 100% disease control, 0 = no disease control relative to controls; for pest or weed control at 200 ppm: Alternaria solani
Excerpt: General protocol for preparing test suspensions for Tests A-F: […] The resulting test suspensions were then used in Tests A-F. The test suspensions were sprayed to the point of run-off on the test plants. All results are for 200 ppm (equivalent to a rate of 500 g/ha) except where followed by “*” which indicates 40 ppm. The test suspension was sprayed to the point of run-off on tomato seedlings. […] A dash (-) indicates no test results. All results are for 200 ppm except where followed by “*”, which indicates 40 ppm.

[6] = tested on: Botrytis cinerea; experiment: Test F: tomato Botrytis, preventive spray on tomato seedlings, visual disease rating; conditions: 200 ppm, 100 = 100% disease control, 0 = no disease control relative to controls; for pest or weed control at 200 ppm: Botrytis cinerea
Excerpt: General protocol for preparing test suspensions for Tests A-F: […] The resulting test suspensions were then used in Tests A-F. The test suspensions were sprayed to the point of run-off on the test plants. All results are for 200 ppm (equivalent to a rate of 500 g/ha) except where followed by “*” which indicates 40 ppm. The test suspension was sprayed to the point of run-off on tomato seedlings. The following day the seedlings were inoculated with a spore suspension of Botrytis cinerea (the causal agent of tomato Botrytis) and incubated in saturated atmosphere at 20° C. for 48 h, and then moved to a growth chamber at 24° C. for 3 days, after which time visual disease ratings were made. […] A dash (-) indicates no test results. All results are for 200 ppm except where followed by “*”, which indicates 40 ppm.

SMILES | pest or weed control at 200 ppm [1] [%] | pest or weed control at 200 ppm [2] [%] | pest or weed control at 200 ppm [3] [%] | pest or weed control at 200 ppm [4] [%] | pest or weed control at 200 ppm [5] [%] | pest or weed control at 200 ppm [6] [%] | Test A rating (disease control, wheat powdery mildew) [1] [%] | Test B rating (disease control, wheat leaf rust) [2] [%] | Test C rating (disease control, wheat leaf blotch) [3] [%] | Test D rating (disease control, wheat glume blotch) [4] [%] | Test E rating (disease control, tomato early blight) [5] [%] | Test F rating (disease control, tomato Botrytis) [6] [%]
COc1cc(OC)cc(-c2c(-c3ccccc3)nnc(C)c2-c2ccc(F)cc2)c1 [Compound 1, 4-(3,5-dimethoxyphenyl)-5-(4-fluorophenyl)-6-methyl-3-phenylpyridazine] | 85 | 99 | 100 | 0 | 72 | 98 |  |  |  |  |  | 
COc1cc(OC)cc(-c2c(-c3ccccc3F)nnc(C)c2-c2ccc(F)cc2)c1 [Compound 2, 4-(3,5-dimethoxyphenyl)-3-(2-fluorophenyl)-5-(4-fluorophenyl)-6-methylpyridazine] | 97 | 99 | 100 | 0 | 99 | 99 |  |  |  |  |  | 
COc1cc(OC)cc(-c2c(-c3ccccc3)nnc(C)c2-c2ccccc2)c1 [Compound 3] |  |  |  |  |  |  | 52 | 86 | 87 | 0 | 0 | 52
COc1cc(OC)cc(-c2c(-c3ccccc3F)nnc(C)c2-c2ccccc2)c1 [Compound 4] |  |  |  |  |  |  | 82 | 96 | 84 | 0 | 28 | 94
COc1cc(OC)cc(-c2c(-c3ccc(F)cc3F)nnc(C)c2-c2ccccc2)c1 [Compound 5] |  |  |  |  |  |  | 91 | 86 | 94 | 0 | 0 | 82
COc1cc(OC)cc(-c2c(-c3ccccc3)nnc(C)c2-c2ccc(Cl)cc2)c1 [Compound 6] |  |  |  |  |  |  | 79 | 97 | 97 | 0 | 36 | 67
COc1ccc(-c2c(C)nnc(-c3ccccc3)c2-c2cc(OC)cc(OC)c2)cc1 [Compound 7, 4-(3,5-dimethoxyphenyl)-5-(4-methoxyphenyl)-6-methyl-3-phenylpyridazine] | 95 | 100 | 100 | 90 | 96 | 97 |  |  |  |  |  | 
COc1ccc(-c2c(C)nnc(-c3ccccc3F)c2-c2cc(OC)cc(OC)c2)cc1 [Compound 8, 4-(3,5-dimethoxyphenyl)-3-(2-fluorophenyl)-5-(4-methoxyphenyl)-6-methylpyridazine] | 97 | 100 | 100 | 95 | 99 | 98 |  |  |  |  |  | 
COc1ccc(-c2c(C)nnc(-c3ccc(F)cc3F)c2-c2cc(OC)cc(OC)c2)cc1 [Compound 9, 3-(2,4-difluorophenyl)-4-(3,5-dimethoxyphenyl)-5-(4-methoxyphenyl)-6-methylpyridazine] | 84 | 91 | 100 | 60 | 81 | 98 |  |  |  |  |  | 
COc1cc(OC)cc(-c2c(-c3cccc(F)c3F)nnc(C)c2-c2ccccc2)c1 [Compound 10] |  |  |  |  |  |  | 97 | 99 | 99 | 0 | 88 | 95
COc1cc(OC)cc(-c2c(-c3ccc(F)cc3)nnc(C)c2-c2ccccc2)c1 [Compound 11] |  |  |  |  |  |  | 93 | 68 | 70 | 0 | 0 | 0
COc1cc(OC)cc(-c2c(-c3ccccc3)n[n+]([O-])c(C)c2-c2ccc(F)cc2)c1 [Compound 12, 4-(3,5-dimethoxyphenyl)-5-(4-fluorophenyl)-6-methyl-3-phenylpyridazine 1-oxide] | 62 | 100 | 99 | 0 | 94 | 100 |  |  |  |  |  | 
COc1cc(OC)cc(-c2c(-c3ccccn3)nnc(C)c2-c2ccccc2)c1 [Compound 13, 4-(3,5-dimethoxyphenyl)-6-methyl-5-phenyl-3-(2-pyridinyl)pyridazine] | 0 | 41 | 0 | 0 | 0 | 0 |  |  |  |  |  | 
COc1cc(OC)cc(-c2c(-c3ccccc3)nnc(CCl)c2-c2ccc(F)cc2)c1 [Compound 14, 3-(chloromethyl)-5-(3,5-dimethoxyphenyl)-4-(4-fluorophenyl)-6-phenylpyridazine] | 11 | 91 | 77 | 0 | 0 | 99 |  |  |  |  |  | 
COc1cc(OC)cc(-c2c(-c3ccccc3F)nnc(C)c2-c2ccc(F)cc2F)c1 [Compound 15, 4-(2,4-difluorophenyl)-5-(3,5-dimethoxyphenyl)-6-(2-fluorophenyl)-3-methylpyridazine] | 100 | 100 | 99 | 98 | 100 | 98 |  |  |  |  |  | 
COc1cc(OC)cc(-c2c(-c3ccc(F)cc3F)cnnc2-c2ccccc2F)c1 [Compound 16] |  |  |  |  |  |  | 0 | 96 | 70 | 0 | 0 | 99
